Assay results as given in paper PMC2806265, “Divergence of allosteric effects of rapacuronium on binding and function of muscarinic receptors” (BMC Pharmacology, 2009).

Columns and labels:
M1 muscarinic receptor = molecular target: T1, M1 muscarinic receptor (Homo sapiens, UniProt P11229); assay: [3H]ACh saturation binding
T1 construct: host or cells: CHO cells, stably transfected; membrane preparation
T1 sequence (P11229 1-460): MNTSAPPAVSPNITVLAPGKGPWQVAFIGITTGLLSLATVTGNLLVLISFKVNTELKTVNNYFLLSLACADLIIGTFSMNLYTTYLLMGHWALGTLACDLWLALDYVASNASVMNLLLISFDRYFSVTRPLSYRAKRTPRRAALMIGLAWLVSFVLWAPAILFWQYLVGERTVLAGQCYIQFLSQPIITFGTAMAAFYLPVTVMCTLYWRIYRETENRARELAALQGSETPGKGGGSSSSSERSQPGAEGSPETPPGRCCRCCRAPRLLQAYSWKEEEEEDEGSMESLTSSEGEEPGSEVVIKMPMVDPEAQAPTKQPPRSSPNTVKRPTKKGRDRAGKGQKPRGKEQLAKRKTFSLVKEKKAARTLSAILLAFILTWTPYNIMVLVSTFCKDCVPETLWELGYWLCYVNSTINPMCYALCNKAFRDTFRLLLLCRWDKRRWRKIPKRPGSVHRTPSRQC
Excerpt: (§1) BMAX, maximum binding capacity; KD, equilibrium dissociation constant.

M3 muscarinic receptor [1] = molecular target: T2, M3 muscarinic receptor (Homo sapiens, UniProt P20309); assay: [3H]ACh saturation binding
T2 construct: host or cells: CHO cells, stably transfected; membranes
T2 sequence (P20309 whole entry): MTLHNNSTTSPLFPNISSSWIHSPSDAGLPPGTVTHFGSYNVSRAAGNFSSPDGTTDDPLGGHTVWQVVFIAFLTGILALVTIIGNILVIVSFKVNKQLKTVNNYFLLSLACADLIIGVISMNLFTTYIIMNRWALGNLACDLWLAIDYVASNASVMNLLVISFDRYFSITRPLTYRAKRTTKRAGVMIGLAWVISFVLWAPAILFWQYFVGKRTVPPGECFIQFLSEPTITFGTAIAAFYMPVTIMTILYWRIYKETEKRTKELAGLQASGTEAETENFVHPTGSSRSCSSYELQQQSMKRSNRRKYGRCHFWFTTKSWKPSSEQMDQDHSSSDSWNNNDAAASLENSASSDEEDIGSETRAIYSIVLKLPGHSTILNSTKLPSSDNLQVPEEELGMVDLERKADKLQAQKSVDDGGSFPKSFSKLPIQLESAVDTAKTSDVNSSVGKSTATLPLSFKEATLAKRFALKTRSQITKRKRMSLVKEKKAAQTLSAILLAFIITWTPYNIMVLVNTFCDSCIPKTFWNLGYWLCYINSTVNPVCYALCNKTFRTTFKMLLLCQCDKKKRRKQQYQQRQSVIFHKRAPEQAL
Excerpt: as §1

M3 muscarinic receptor [2] = molecular target: T2, M3 muscarinic receptor; assay: biochemical; settings: for EMAX of ACh on [^35S]GTPγS binding: fold of basal
Procedure: (§2) For determination of [^35S]GTPγS binding to G-proteins in membranes a final concentration of 200 pM (M1, M3 and M5 receptors) or 500 pM (M2 and M4 receptors) of [^35S]GTPγS was used. Incubation medium was supplemented with 5 μM (M1, M3 and M5 receptors) or 50 μM (M2 and M4 receptors) GDP. […] Incubation with [^35S]GTPγS was carried out for 20 min and free ligand was removed by filtration as described above. Filtration and washing with ice-cold water lasted for 9 s (wash-aspirate button time).

M2 muscarinic receptor [3] = molecular target: T3, M2 muscarinic receptor (Homo sapiens, UniProt P08172); assay: [3H]NMS saturation binding
T3 sequence (P08172 1-466): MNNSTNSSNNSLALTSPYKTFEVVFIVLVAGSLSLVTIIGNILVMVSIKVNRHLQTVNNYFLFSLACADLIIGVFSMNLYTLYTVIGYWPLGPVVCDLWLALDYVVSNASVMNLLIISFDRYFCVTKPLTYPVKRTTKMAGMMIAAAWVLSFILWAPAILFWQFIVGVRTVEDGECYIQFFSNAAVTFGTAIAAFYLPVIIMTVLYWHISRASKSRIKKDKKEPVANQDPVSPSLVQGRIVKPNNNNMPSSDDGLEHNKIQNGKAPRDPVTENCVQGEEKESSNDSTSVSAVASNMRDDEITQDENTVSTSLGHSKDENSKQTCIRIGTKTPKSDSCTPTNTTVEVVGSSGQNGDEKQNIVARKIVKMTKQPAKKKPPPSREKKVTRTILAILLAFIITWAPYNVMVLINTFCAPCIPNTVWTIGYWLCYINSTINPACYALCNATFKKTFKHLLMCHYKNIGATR

M4 muscarinic receptor [4] = molecular target: T4, M4 muscarinic receptor (Homo sapiens, UniProt P08173); assay: [3H]ACh saturation binding; parameters: host or cells: CHO cells, stably transfected; membranes
T4 sequence (P08173 1-479): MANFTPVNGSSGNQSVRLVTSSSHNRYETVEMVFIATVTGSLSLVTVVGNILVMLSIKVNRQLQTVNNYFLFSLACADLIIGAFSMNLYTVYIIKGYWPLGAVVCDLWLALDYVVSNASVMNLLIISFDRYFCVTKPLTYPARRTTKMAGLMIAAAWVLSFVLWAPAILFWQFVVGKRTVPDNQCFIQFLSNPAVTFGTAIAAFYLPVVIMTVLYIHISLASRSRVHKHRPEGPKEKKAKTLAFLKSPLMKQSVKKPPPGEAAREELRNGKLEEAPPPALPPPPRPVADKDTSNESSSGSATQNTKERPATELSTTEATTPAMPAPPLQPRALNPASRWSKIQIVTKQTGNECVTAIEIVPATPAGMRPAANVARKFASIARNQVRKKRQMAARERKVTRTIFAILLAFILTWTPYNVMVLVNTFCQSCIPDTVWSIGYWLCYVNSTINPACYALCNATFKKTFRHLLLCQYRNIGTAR
Excerpt: as §1

M5 muscarinic receptor = molecular target: T5, M5 muscarinic receptor (Homo sapiens, UniProt P08912); assay: [3H]ACh saturation binding; parameters: host or cells: CHO cells, stably transfected; membranes
T5 sequence (P08912 1-532): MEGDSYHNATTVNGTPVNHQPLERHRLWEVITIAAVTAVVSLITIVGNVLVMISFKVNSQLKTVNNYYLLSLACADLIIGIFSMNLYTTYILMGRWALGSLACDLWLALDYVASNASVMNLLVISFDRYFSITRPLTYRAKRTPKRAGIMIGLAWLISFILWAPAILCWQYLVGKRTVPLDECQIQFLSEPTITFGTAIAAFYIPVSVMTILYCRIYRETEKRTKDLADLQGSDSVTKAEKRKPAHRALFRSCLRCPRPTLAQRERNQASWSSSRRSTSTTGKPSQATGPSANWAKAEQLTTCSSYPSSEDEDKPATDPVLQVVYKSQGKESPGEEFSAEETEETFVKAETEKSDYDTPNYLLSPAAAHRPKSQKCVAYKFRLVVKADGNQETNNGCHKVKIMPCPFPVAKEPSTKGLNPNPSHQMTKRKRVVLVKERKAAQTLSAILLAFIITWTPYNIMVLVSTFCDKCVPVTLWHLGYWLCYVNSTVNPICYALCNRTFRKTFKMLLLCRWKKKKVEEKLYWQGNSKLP
Excerpt: as §1

M4 muscarinic receptor [5] = molecular target: T4, M4 muscarinic receptor; assay: [35S]GTPγS binding to membranes; format: biochemical; parameters: host or cells: CHO cells, stably transfected; membranes; settings: for EMAX of ACh on [^35S]GTPγS binding: fold of basal
Procedure: as §2

M2 muscarinic receptor [6] = molecular target: T3, M2 muscarinic receptor; assay: [3H]ACh saturation binding; parameters: host or cells: CHO cells, stably transfected; membrane preparation
Excerpt: as §1

M2 muscarinic receptor [7] = molecular target: T3, M2 muscarinic receptor; assay: [35S]GTPγS binding to membranes; format: biochemical; parameters: host or cells: CHO cells, stably transfected; membrane preparation; settings: for EMAX of ACh on [^35S]GTPγS binding: fold of basal
Procedure: as §2

[8] = rapacuronium alone, normalized to absence of rapacuronium

C=CC[N+]1([C@H]2C[C@H]3[C@@H]4CC[C@H]5C[C@H](OC(C)=O)[C@@H](N6CCCCC6)C[C@]5(C)[C@H]4CC[C@]3(C)[C@H]2OC(=O)CC)CCCCC1 [rapacuronium]
BMAX of [^3H]ACh (M1 muscarinic receptor; + 10 μM rapacuronium): 0.33 ± 0.05 fmol/μg of protein
BMAX of [^3H]ACh (M1 muscarinic receptor; + 100 μM rapacuronium): 0.32 ± 0.05 fmol/μg of protein
BMAX of [^3H]ACh (M3 muscarinic receptor [1]; + 10 μM rapacuronium): 0.40 ± 0.04 fmol/μg of protein
BMAX of [^3H]ACh (M3 muscarinic receptor [1]; + 100 μM rapacuronium): 0.37 ± 0.05 fmol/μg of protein
decrease in ACh EC50 (M3 muscarinic receptor [2]; 0.1 μM rapacuronium): 2 fold
decrease in ACh EC50 (M3 muscarinic receptor [2]; 1 μM rapacuronium): 2 fold
increase in ACh EC50 (M3 muscarinic receptor [2]; 10 μM rapacuronium): about 3 fold
EMAX of ACh on [^35S]GTPγS binding (M3 muscarinic receptor [2]; + 0.1 μM rapacuronium): 2.78 ± 0.11
EMAX of ACh on [^35S]GTPγS binding (M3 muscarinic receptor [2]; + 1 μM rapacuronium): 2.52 ± 0.08
EMAX of ACh on [^35S]GTPγS binding (M3 muscarinic receptor [2]; + 10 μM rapacuronium): 2.12 ± 0.09
EMAX of rapacuronium on [^35S]GTPγS binding (M3 muscarinic receptor [2]; [8]): 0.75 ± 0.07
EC50 (M3 muscarinic receptor [2]; rapacuronium alone, read-out: EC50 of lowering [^35S]GTPγS binding): 76 µM
Emax at 0.1 µM (M3 muscarinic receptor [2]; read-out: increase in ACh EMAX, 0.1 μM rapacuronium): ~60%
Emax at 1 µM (M3 muscarinic receptor [2]; read-out: increase in ACh EMAX, 1 μM rapacuronium): ~35%
BMAX of [^3H]NMS (M2 muscarinic receptor [3]; + 10 μM rapacuronium): 1.62 ± 0.14 fmol/μg of protein
BMAX of [^3H]NMS (M2 muscarinic receptor [3]; + 100 μM rapacuronium): 1.66 ± 0.14 fmol/μg of protein
BMAX of [^3H]ACh (M4 muscarinic receptor [4]; + 10 μM rapacuronium): 0.54 ± 0.05 fmol/μg of protein
BMAX of [^3H]ACh (M4 muscarinic receptor [4]; + 100 μM rapacuronium): 0.47 ± 0.04 fmol/μg of protein
BMAX of [^3H]ACh (M5 muscarinic receptor; + 10 μM rapacuronium): 0.33 ± 0.03 fmol/μg of protein
BMAX of [^3H]ACh (M5 muscarinic receptor; + 100 μM rapacuronium): 0.34 ± 0.06 fmol/μg of protein
EC50 (M4 muscarinic receptor [5]): 36.3 µM
EMAX of ACh on [^35S]GTPγS binding (M4 muscarinic receptor [5]; M4, + 0.1 μM rapacuronium): 2.95 ± 0.11
EMAX of ACh on [^35S]GTPγS binding (M4 muscarinic receptor [5]; M4, + 1 μM rapacuronium): 2.80 ± 0.12
EMAX of ACh on [^35S]GTPγS binding (M4 muscarinic receptor [5]; M4, + 10 μM rapacuronium): 2.32 ± 0.16
EMAX of rapacuronium on [^35S]GTPγS binding (M4 muscarinic receptor [5]; M4, rapacuronium alone, normalized to absence of rapacuronium): 0.86 ± 0.06
BMAX of [^3H]ACh (M2 muscarinic receptor [6]; + 10 μM rapacuronium): 0.74 ± 0.07 fmol/μg of protein
BMAX of [^3H]ACh (M2 muscarinic receptor [6]; + 100 μM rapacuronium): 0.77 ± 0.08 fmol/μg of protein
EMAX of ACh on [^35S]GTPγS binding (M2 muscarinic receptor [7]; + 0.1 μM rapacuronium): 3.10 ± 0.15
EMAX of ACh on [^35S]GTPγS binding (M2 muscarinic receptor [7]; + 1 μM rapacuronium): 2.93 ± 0.13
EMAX of ACh on [^35S]GTPγS binding (M2 muscarinic receptor [7]; + 10 μM rapacuronium): 2.46 ± 0.18
EMAX of rapacuronium on [^35S]GTPγS binding (M2 muscarinic receptor [7]; [8]): 0.84 ± 0.06
EC50 (M2 muscarinic receptor [7]; rapacuronium alone, read-out: pEC50 of rapacuronium on [^35S]GTPγS binding (converted)): 28.2 µM
